Where two headings read alike, the source gives them in different places.
Assays:
[1] = molecular target: T1, hOCT2 (Homo sapiens, UniProt O15244); assay: Inhibition of hOCT2-mediated 14C-metformin uptake in transfected HEK293 cells; format: cell-based; parameters: expressed in transfected cells; host or cells: HEK293 (stably transfected)
T1 sequence (O15244 1-555): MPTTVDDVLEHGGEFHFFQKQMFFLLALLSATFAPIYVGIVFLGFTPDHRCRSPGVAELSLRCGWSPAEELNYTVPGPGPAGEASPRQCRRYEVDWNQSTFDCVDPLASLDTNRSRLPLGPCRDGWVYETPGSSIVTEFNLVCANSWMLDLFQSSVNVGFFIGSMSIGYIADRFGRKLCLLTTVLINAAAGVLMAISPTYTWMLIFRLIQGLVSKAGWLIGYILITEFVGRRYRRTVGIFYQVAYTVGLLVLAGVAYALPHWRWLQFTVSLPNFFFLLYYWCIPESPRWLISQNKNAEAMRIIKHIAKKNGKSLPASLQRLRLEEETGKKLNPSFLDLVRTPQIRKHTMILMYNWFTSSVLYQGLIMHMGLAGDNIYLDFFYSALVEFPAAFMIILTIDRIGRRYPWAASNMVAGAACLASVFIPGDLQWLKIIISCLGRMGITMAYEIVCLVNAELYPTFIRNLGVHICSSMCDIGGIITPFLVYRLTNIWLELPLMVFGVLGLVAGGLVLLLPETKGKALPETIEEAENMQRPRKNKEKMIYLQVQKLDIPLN
Method: (§1) The uptake assays were performed as previously described in 24-well plates. […] After incubation, the uptake was stopped by aspirating the reaction mixture and washing the cells three times with 0.4 mL ice-cold PBS buffer. Cells were then solubilized with 0.6 mL of 1 N NaOH, overnight. The whole content of each well (0.6 mL) was transferred to a scintillation vial (Perkin Elmer). The radio-labelled amount was determined by liquid scintillation counting.
(§2) All inhibition experiments were conducted on at least two separate days in triplicate.
(§3) For screening experiments, cis-inhibition was carried out in duplicate by measuring the uptake of the labeled probe substrate in the absence and presence of 10 µM or 100 µM of the respective pesticide or drug. […] Inhibitory effects in percent were calculated from net-uptake. […]

[2] = molecular target: T2, mOct2 (Mus musculus, UniProt O70577); assay: Inhibition of mOct2-mediated 14C-metformin uptake in transfected HEK293 cells; format: cell-based; parameters: expressed in transfected cells; host or cells: HEK293 (stably transfected)
T2 sequence (O70577 1-553): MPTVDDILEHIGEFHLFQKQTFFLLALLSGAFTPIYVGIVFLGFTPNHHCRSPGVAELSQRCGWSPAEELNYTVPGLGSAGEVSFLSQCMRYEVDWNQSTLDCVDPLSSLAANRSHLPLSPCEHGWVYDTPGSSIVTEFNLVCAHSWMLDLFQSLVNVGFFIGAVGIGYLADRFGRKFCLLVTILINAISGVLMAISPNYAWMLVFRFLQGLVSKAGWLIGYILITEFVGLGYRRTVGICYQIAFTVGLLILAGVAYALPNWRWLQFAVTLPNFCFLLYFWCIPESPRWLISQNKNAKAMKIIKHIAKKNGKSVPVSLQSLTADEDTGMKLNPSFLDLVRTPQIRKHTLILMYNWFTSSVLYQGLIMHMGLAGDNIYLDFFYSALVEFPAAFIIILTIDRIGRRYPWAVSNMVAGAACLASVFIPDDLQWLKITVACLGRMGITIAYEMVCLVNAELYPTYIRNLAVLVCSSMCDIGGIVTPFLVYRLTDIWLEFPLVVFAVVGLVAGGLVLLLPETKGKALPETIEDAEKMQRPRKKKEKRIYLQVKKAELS
Method: as §1, §2, §3

[3] = molecular target: T2, mOct2; assay: Inhibition of mOct2-mediated 3H-MPP uptake in transfected HEK293 cells; format: cell-based; parameters: expressed in transfected cells; host or cells: HEK293 (stably transfected)
Method: (§4) With cDNA of hOCT2 (GeneBank: accession number: NM_003058.3) or mOct2 (NM_013667.2), stably overexpressing HEK293 cells were used for the experiments and empty vector-transfected HEK cells were used as control-HEK cells.
(§5) The uptake assays were performed as previously described in 24-well plates. Therefore, culture medium was aspirated, and each well was rinsed three times with 0.5 mL incubation buffer (HBSS supplemented with 20 mM HEPES, pH 7.4) and then incubated in 200 µL dosing solution containing ^3H-MPP or ^14C-metformin and the test compound. After incubation, the uptake was stopped by aspirating the reaction mixture and washing the cells three times with 0.4 mL ice-cold PBS buffer. Cells were then solubilized with 0.6 mL of 1 N NaOH, overnight. The whole content of each well (0.6 mL) was transferred to a scintillation vial (Perkin Elmer). The radio-labelled amount was determined by liquid scintillation counting.
(§6) […]. All inhibition experiments were conducted on at least two separate days in triplicate.
(§7) The Km and Vmax values were obtained using SigmaPlot version 13 by fitting the Michaelis–Menten equation V = Vmax*[S]/(Km + [S]), where V refers to the rate of substrate transport, Vmax refers to the maximum rate of substrate transport, [S] refers to the concentration of substrate, and Km is defined as the concentration of substrate at the half-maximal transport rate.

[4] = molecular target: T1, hOCT2; assay: Inhibition of hOCT2-mediated 3H-MPP uptake in transfected HEK293 cells; format: cell-based; parameters: expressed in transfected cells; host or cells: HEK293 (stably transfected)
Method: as §4, §5, §6, §7

[5] = substrate: C[n+]1ccc(-c2ccccc2)cc1; assay: cells, lysate or membranes; conditions: other: substrate, metformin 2 min, MPP 1 min, 37 °C, pH 7.4
[6] = HEK293, 10 µM test compound; 1 µM [14C]metformin, 2 min, HEK293; negative = stimulation; read-out: Inhibitory Effects (%) hOCT2 10 µM Mean
[7] = HEK293, 100 µM test compound; 1 µM [14C]metformin, 2 min, HEK293; negative = stimulation; read-out: Inhibitory Effects (%) hOCT2 100 µM Mean
[8] = HEK293, 10 µM test compound; 1 µM [14C]metformin, 2 min, HEK293; negative = stimulation; read-out: Inhibitory Effects (%) mOct2 10 µM Mean
[9] = HEK293, 100 µM test compound; 1 µM [14C]metformin, 2 min, HEK293; negative = stimulation; read-out: Inhibitory Effects (%) mOct2 100 µM Mean
[10] = HEK293; read-out: Inhibitory Effects (%) mOct2 10 µM Mean
[11] = HEK293; read-out: Inhibitory Effects (%) mOct2 100 µM Mean
[12] = HEK293, read-out: Inhibitory Effects (%) hOCT2 10 µM Mean
[13] = HEK293, read-out: Inhibitory Effects (%) hOCT2 100 µM Mean
[14] = HEK293, read-out: Inhibitory Effects (%) mOct2 10 µM Mean
[15] = HEK293, read-out: Inhibitory Effects (%) mOct2 100 µM Mean
[16] = 10 µM test compound; 1 µM [14C]metformin, 2 min, HEK293; negative = stimulation
[17] = 100 µM test compound; 1 µM [14C]metformin, 2 min, HEK293; negative = stimulation
[18] = HEK293; read-out: Inhibitory Effects (%) hOCT2 10 µM Mean
[19] = HEK293; read-out: Inhibitory Effects (%) hOCT2 100 µM Mean

Molecule: O[C@@H](COc1cccc2ncccc12)CN1CCN([C@@H]2c3ccccc3[C@@H]3[C@H](c4ccccc42)C3(F)F)CC1 [Zosuquidar]
- inhibition at 10 µM [1, 6]: -10%
- inhibition at 100 µM [1, 7]: -47%
- inhibition at 10 µM [2, 8]: -11%
- inhibition at 100 µM [2, 9]: -30%

Molecule: COC(=O)[C@H]1[C@H]2C[C@@H]3c4[nH]c5cc(OC)ccc5c4CCN3C[C@H]2C[C@@H](OC(=O)c2cc(OC)c(OC)c(OC)c2)[C@@H]1OC [Reserpine]
- inhibition at 10 µM [1, 6]: -13%
- inhibition at 100 µM [1, 7]: -27%
- inhibition at 10 µM [2, 10]: -27%
- inhibition at 100 µM [2, 11]: -19%

Molecule: CCNc1nc(Cl)nc(NC(C)C)n1 [Atrazin]
- inhibition at 10 µM [1, 12]: -57%
- inhibition at 100 µM [1, 13]: -53%
- inhibition at 10 µM [2, 14]: -44%
- inhibition at 100 µM [2, 15]: -27%

Molecule: CO/C=C(/C(=O)OC)c1ccccc1Oc1cc(Oc2ccccc2C#N)ncn1 [Azoxystrobin]
- Inhibitory Effects (%) hOCT2 10 µM Mean [1, 16]: −40%
- Inhibitory Effects (%) hOCT2 100 µM Mean [1, 17]: −14%
- Inhibitory Effects (%) mOct2 10 µM Mean [2, 16]: −6%
- Inhibitory Effects (%) mOct2 100 µM Mean [2, 17]: −17%

Molecule: CCCN(CCOc1c(Cl)cc(Cl)cc1Cl)C(=O)n1ccnc1 [Prochloraz]
- inhibition at 10 µM [1, 12]: -43%
- inhibition at 100 µM [1, 13]: -17%
- inhibition at 10 µM [2, 14]: -13%
- inhibition at 100 µM [2, 15]: 10%

Molecule: C=CCOC(Cn1ccnc1)c1ccc(Cl)cc1Cl (stereo not drawn) [Imazalil]
- IC50 [3]: 23 ± 6 µM
- IC50 [4]: 51 ± 16 µM
- Fold higher IC50 for hOCT2 than for mOct2 ([4]; MPP as substrate): 2 fold
- IC50 [1]: 4.7 µM
- inhibition at 10 µM [1, 12]: 52%
- inhibition at 100 µM [1, 13]: 93%
- IC50 [2]: 0.58 µM
- inhibition at 10 µM [2, 14]: 83%
- inhibition at 100 µM [2, 15]: 97%
- Fold higher inhibitory potency to mouse than to human OCT2 (IC50 ratio) ([2]; metformin as substrate): 8 fold

Molecule: C=C[C@H]1C[N@@]2CC[C@H]1C[C@@H]2[C@@H](O)c1ccnc2ccc(OC)cc12 [Quinidine]
- inhibition at 10 µM [1, 18]: -50%
- inhibition at 100 µM [1, 19]: -31%
- inhibition at 10 µM [2, 8]: -38%
- inhibition at 100 µM [2, 9]: -28%

Molecule: COc1ccc(CCN(C)CCCC(C#N)(c2ccc(OC)c(OC)c2)C(C)C)cc1OC (stereo not drawn) [Verapamil]
- inhibition at 10 µM [1, 12]: -8%
- inhibition at 100 µM [1, 13]: 44%
- inhibition at 10 µM [2, 14]: 23%
- inhibition at 100 µM [2, 15]: 73%

Molecule: Cc1ccc(/N=C/N(C)/C=N/c2ccc(C)cc2C)c(C)c1 [Amitraz]
- inhibition at 10 µM [1, 12]: -98%
- inhibition at 100 µM [1, 13]: -96%
- inhibition at 10 µM [2, 14]: -33%
- inhibition at 100 µM [2, 15]: -12%

Molecule: O=C(O)CNCP(=O)(O)O [Glyphosat]
- inhibition at 10 µM [1, 12]: -24%
- inhibition at 100 µM [1, 13]: -48%
- inhibition at 10 µM [2, 14]: -13%
- inhibition at 100 µM [2, 15]: -31%

Molecule: O=[N+]([O-])NC1=NCCN1Cc1ccc(Cl)nc1 [Imidacloprid]
- inhibition at 10 µM [1, 12]: -74%
- inhibition at 100 µM [1, 13]: -43%
- inhibition at 10 µM [2, 14]: -52%
- inhibition at 100 µM [2, 15]: -29%

Molecule: CCCCc1oc2ccccc2c1C(=O)c1cc(I)c(OCCN(CC)CC)c(I)c1 [Amiodarone]
- inhibition at 10 µM [1, 6]: -10%
- inhibition at 100 µM [1, 7]: -27%
- inhibition at 10 µM [2, 8]: -7%
- inhibition at 100 µM [2, 9]: 4%

Molecule: CCCOC(=O)NCCCN(C)C [Propamocarb]
- Inhibitory Effects (%) hOCT2 10 µM Mean [1, 16]: negligible
- inhibition at 10 µM [1, 18]: 1%
- inhibition at 100 µM [1, 19]: 55%
- Inhibitory Effects (%) mOct2 10 µM Mean [2, 16]: negligible
- inhibition at 10 µM [2, 10]: -9%
- inhibition at 100 µM [2, 11]: 48%

Molecule: CN/C(=N/CCSCc1nc[nH]c1C)NC#N [Cimetidine]
- inhibition at 10 µM [1, 6]: -50%
- inhibition at 100 µM [1, 7]: -17%
- inhibition at 10 µM [2, 8]: -42%
- inhibition at 100 µM [2, 9]: 24%

B1: hOCT2 (Homo sapiens) (protein)
chain: MPTTVDDVLEHGGEFHFFQKQMFFLLALLSATFAPIYVGIVFLGFTPDHRCRSPGVAELSLRCGWSPAEELNYTVPGPGPAGEASPRQCRRYEVDWNQSTFDCVDPLASLDTNRSRLPLGPCRDGWVYETPGSSIVTEFNLVCANSWMLDLFQSSVNVGFFIGSMSIGYIADRFGRKLCLLTTVLINAAAGVLMAISPTYTWMLIFRLIQGLVSKAGWLIGYILITEFVGRRYRRTVGIFYQVAYTVGLLVLAGVAYALPHWRWLQFTVSLPNFFFLLYYWCIPESPRWLISQNKNAEAMRIIKHIAKKNGKSLPASLQRLRLEEETGKKLNPSFLDLVRTPQIRKHTMILMYNWFTSSVLYQGLIMHMGLAGDNIYLDFFYSALVEFPAAFMIILTIDRIGRRYPWAASNMVAGAACLASVFIPGDLQWLKIIISCLGRMGITMAYEIVCLVNAELYPTFIRNLGVHICSSMCDIGGIITPFLVYRLTNIWLELPLMVFGVLGLVAGGLVLLLPETKGKALPETIEEAENMQRPRKNKEKMIYLQVQKLDIPLN
- Km [5]: 62 µM

B2: mOct2 (Mus musculus) (protein)
chain: MPTVDDILEHIGEFHLFQKQTFFLLALLSGAFTPIYVGIVFLGFTPNHHCRSPGVAELSQRCGWSPAEELNYTVPGLGSAGEVSFLSQCMRYEVDWNQSTLDCVDPLSSLAANRSHLPLSPCEHGWVYDTPGSSIVTEFNLVCAHSWMLDLFQSLVNVGFFIGAVGIGYLADRFGRKFCLLVTILINAISGVLMAISPNYAWMLVFRFLQGLVSKAGWLIGYILITEFVGLGYRRTVGICYQIAFTVGLLILAGVAYALPNWRWLQFAVTLPNFCFLLYFWCIPESPRWLISQNKNAKAMKIIKHIAKKNGKSVPVSLQSLTADEDTGMKLNPSFLDLVRTPQIRKHTLILMYNWFTSSVLYQGLIMHMGLAGDNIYLDFFYSALVEFPAAFIIILTIDRIGRRYPWAVSNMVAGAACLASVFIPDDLQWLKITVACLGRMGITIAYEMVCLVNAELYPTYIRNLAVLVCSSMCDIGGIVTPFLVYRLTDIWLEFPLVVFAVVGLVAGGLVLLLPETKGKALPETIEDAEKMQRPRKKKEKRIYLQVKKAELS
- Km [5]: 40 µM
